Measured values: article PMC8335727 (Inorganic Chemistry, 2021)
Where two headings read alike, the source gives them in different places.

Tests used:
Colo205 = test: MTT cytotoxicity assay, Colo205; assay type: cell-based; conditions: Homo sapiens, COLO 205, 72 h of exposure
Method: The in vitro cytotoxicity of the TSCs HL^1–HL^3, copper(II) complexes Cu(HL^1)Cl2, [Cu(L^2)Cl], and Cu(HL^3)Cl2, and oxidized TSCs HL^1a′, HL^1a″, and HL^2c′·CH3COOH was tested in the doxorubicin-sensitive Colo205 and the multidrug-resistant Colo320 human colonic adenocarcinoma cell lines as well as in normal human embryonal lung fibroblast cells (MRC-5) by the colorimetric MTT assay. […]
2.5. In vitro cell studies
2.5.1. Cell lines and culture conditions
All cell culture reagents were obtained from Sigma-Aldrich and plastic ware from Sarstedt
(Germany). Doxorubicin-sensitive human colonic Colo 205 and multidrug resistant
Colo 320/MDR-LRP adenocarcinoma cell lines were purchased from LGC Promochem,
Teddington, UK. The cells were cultured in Roswell Park Memorial Institute (RPMI) 1640
medium supplemented with 10% heat-inactivated fetal bovine serum, 2 mM L-glutamine, 1 mM
Na-pyruvate and 100 mM Hepes. The cell lines were incubated at 37°C, in a 5% CO2, 95% air
MRC-5 human embryonal lung fibroblast cell line (ATCC CCL-171) was purchased from LGC
Promochem, Teddington, UK. The cell line was cultured in Eagle’s Minimal Essential Medi um
(EMEM, containing 4.5 g/L glucose) supplemented with a non-essential amino acid mixture, a
selection of vitamins and 10% heat-inactivated fetal bovine serum. The cells were incubated at
37°C, in a 5% CO2, 95% air atmosphere. All cell lines were detached with Trypsin-Versene
(EDTA) solution for 5 min at 37 °C.
The tested compounds were dissolved in DMSO using 10 mM concentration. Then stock solutions
were diluted in complete culture medium in 96-well microtiter plates, and two-fold serial dilutions
of compounds were prepared in 100 µL of RPMI 1640, horizontally. The semi-adherent colonic
adenocarcinoma cells were treated with Trypsin -Versene (EDTA) solution. They were adjusted to
a density of 1×10^4 cells in 100 µL of RPMI 1640 medium, and were added to each well, with the
exception of the medium control wells. The final volume of the wells containing compounds and
cells was 200 µL. The culture were incubated at 37 °C for 72 h; at the end of the incubation period,
20 µL of MTT solution (from a stock solution of 5 mg/mL) were added to each well. After
incubation at 37 °C for 4 h, 100 µL of SDS solution (10% in 0.01 M HCI) were added to each well
and the plates were further incubated at 37 °C overnight. The cell growth was determined using
both methods by measuring the optical density (OD) at 450 nm (ref. 620 nm) with a Multiscan EX
ELISA reader. Inhibition of the cell growth (expressed as IC 50: inhibitory concentration that
reduces by 50% the growth of the cells exposed to the tested compounds) was determined from
the sigmoid curve where 100 – ((ODsample ‒ ODmedium control)/(ODcell control ‒ ODmedium control)) × 100
values were plotted against the logarithm of compound concentrations. […]
0.76 tyrosyl radical/polypeptide. Samples containing 20 µM mR2 in 50 mM HEPES buffer, pH
7.50/100 mM NaCl, and 20 µM respective compound in 1% (v/v) DMSO/H2O, and 2 mM

[1] = pKa by UV–vis titrations in 30% (v/v) DMSO/H2O; assay type: physicochemical; conditions: 30% (v/v) DMSO/H2O solvent mixture, I = 0.1 M (KCl), T = 25 °C
From the text: Proton dissociation constants (pKa) of drug molecules indicate the actual protonation state and the charge at a given pH, and therefore pKa are important parameters that affect the pharmacokinetic properties as well.
On the basis of the spectral changes two well-separated deprotonation processes were observed between pH 2 and 11. The first proton dissociation step taking place at pH < 5 is accompanied by a blue shift, and the λmax is shifted from 362 to 322 nm. This deprotonation step is attributed to the proton on the pyridinium nitrogen (PyH^+). Upon an increase of the pH a new process occurred as evidenced by a new band in the range of 350–450 nm (Figure 7b) and an isosbestic point at 350 nm, namely, the deprotonation of the hydrazinic nitrogen. In the strongly basic pH range (pH > 11.2) new broad bands appear at 400–600 nm (Figure 7b) with irreversible spectral changes most likely due to an oxidation of the TSC by the air oxygen.
Therefore, only two pKa values could be determined (Table 1) based on the deconvolution of the UV–vis spectra recorded at pH < 11.2 for HL^1 (molar absorbance spectra are seen in Figure S8a) as the oxidation hindered the accurate determination of the pKa for the aromatic OH group. Two pKa values were computed for HL^2 from the UV–vis titration data (Figure S9) as well; however, only one pKa was obtained in the case of HL^3 (Table 1), namely, that for the deprotonation of the PyH^+, since the proton dissociation of the hydrazinic nitrogen and the oxidation of the TSC were partly overlapped. On the basis of the determined pKa values, it can be concluded that the presence of the electron-donating methyl group in HL^2 results in a significant increase of both pKa values when compared to that of HL^1. A similar behavior was reported for the analogous 2-formylpyridine and 2-acetylpyridine TSC in our previous work.[67] […] All proligands are air-sensitive in the strongly basic pH range (pH > 11).
The metal complexes often undergo transformation processes upon dissolution, such as protonation, deprotonation, or dissociation to a metal-free ligand and metal ion depending on the pH, their concentration, and the solution speciation. The knowledge of the actual chemical form of the biologically active metal complexes in solution close to physiologically relevant conditions is quite important to elucidate the mechanism of action. Therefore, the solution stability of the copper(II) complexes (Cu(HL^1)Cl2, [Cu(L^2)Cl], and Cu(HL^3)Cl2) was studied by UV–vis spectrophotometry. […] At lower pH this type of complex is protonated, and thus the neutral ligand is bound via (Npyridine,N,S) donor atoms, while a mixed hydroxido complex with the (Npyridine,N,S^–)(OH) coordination pattern is formed in the basic pH range. On the basis of the close structural similarities between HL^1–HL^3 and the listed TSCs with a simpler scaffold, the formation of the same type of complexes is feasible. UV–vis titrations were performed with the complexes in a 30% (v/v) DMSO/H2O solvent mixture, and representative spectra are shown for Cu(HL^1)Cl2 in Figure 8. The spectra remain intact in a broad pH range (2.7–7.6), and an absorption band is observed with λmax at 406 nm being typical for a S → Cu charge transfer. This finding indicates the dominant presence of only one kind of complex, which is most probably the species with the (Npyridine,N,S^–) tridentate coordination mode. By decreasing the pH the λmax is hypsochromically shifted to 322 nm. […]

| Compound | IC50 (Colo205) [µM] | pKa ([1]; read-out: pKa (NNH)) | pKa ([1]; read-out: pKa (PyH^+)) |
| --- | --- | --- | --- |
| Cc1cc(NC(=S)NN=Cc2ccccn2)cc(C)c1O [HL^1, 2-Formylpyridine 4-(4-hydroxy-3,5-dimethylphenyl)thiosemicarbazone] | > 100 | 10.55 ± 0.01 | 3.01 ± 0.01 |
| CC(=NNC(=S)Nc1cc(C)c(O)c(C)c1)c1ccccn1 [HL^2, 2-Acetylpyridine 4-(4-hydroxy-3,5-dimethylphenyl)thiosemicarbazone] | > 100 | 11.08 ± 0.02 | 3.59 ± 0.02 |
| Cc1cc(NC(=S)NN=Cc2ncccc2N)cc(C)c1O [HL^3, 3-Amino-2-formylpyridine 4-(4-hydroxy-3,5-dimethylphenyl)thiosemicarbazone] | 48.2 ± 6.8 |  | 3.95 ± 0.04 |
